Common to all, as to format: biochemical
The target in assay [1] is T1, FGFR1 (Homo sapiens, UniProt P11362).
T1 construct: cytoplasmic domain [398-822 (terminal) amino acids]; purchased Carna 08-133
Nature of the assay: FGFR1 kinase activity inhibition assay (LanthaScreen TR-FRET). Conditions: for IC50: FGFR1 kinase, TR-FRET, read-out: IC50 (nM) FGFR1. The gist of the method: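 Emission ratio 520 nm/495 nm by TR-FRET after stopping reaction with 10 mM EDTA and 60 min incubation at 22°C. Inhibition normalized between no-enzyme (min) and DMSO (max) controls, then fitted to a four-parameter curve (Top, Bottom, HillSlope).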

Assay [2] concerns the target T2, FGFR2 (Homo sapiens, UniProt P21802).
T2 construct: FGFR2's cytoplasmic domain [399-821 (terminal) amino acids]; purchased Carna 08-134
Nature of the assay: FGFR2 kinase activity inhibition assay (LanthaScreen TR-FRET). Conditions: for IC50: FGFR2 kinase, TR-FRET, read-out: IC50 (nM) FGFR2. Here is the method: (§1) FGFR1 kinase activity was measured using Invitrogen LanthaScreen™ assay technology, which utilized fluorescently-labeled peptides and terbium-labeled antibodies to directly measure an amount of the phosphorylated substrate through time-resolved fluorescence energy transfer (TR-FRET). • ① The test compounds were diluted: starting from a concentration of 1 µM, with a buffer solution in a three-fold serial dilution, the buffer solution being composed of 50 mM HEPES, 10 mM MgCl2, 0.01% TritonX-100, 0.01% BSA, 4 mM DTT (pH 7.5), and 1% DMSO; • ② 0.01 nM recombinant human GST fusion protein FGFR1's cytoplasmic domain [398-822 (terminal) amino acids] (Carna: 08-133) was formulated into a 2 × solution, mixed well with the test compounds, and incubated at 23°C for 10 minutes; • ③ 28 nM Fluorescein-Poly GT peptide substrate (Life Technologies: PV3611) and 28 µM ATP were formulated into a 2 × solution, mixed well with the test compounds and enzyme in ②, and incubated at 23°C for 30 minutes; • ④ 10 µL of 2nM Tb-PY20 antibody (Life Technologies: PV3552) and 10 mM EDTA were added to quench the kinase reaction, and incubated at 22°C for 60 minutes. • ⑤ The reaction was measured using a PerkinElmer EnVision multimode plate reader through TR-FRET dual wavelength detection. • 1. The RFU values were copied from the Envision program. • 2. The ratio of RFU 520nm/RFU 495nm was calculated. • 3. The value of the ratio was converted to a percentage inhibition value. % Inhibition = (max-data)/(max-min) × 100 [formula]
(§2) "Min" represents the ratio of the control without enzyme, "max" represents the ratio of the DMSO control, and "data" represents the ratio of the compounds in wells with different concentrations.
(§3) "Top" refers to the maximum response, "Bottom" refers to the minimum response, and "HillSlope" refers to the slope of the curve.
According to the same method as that in the FGFR1 kinase activity inhibition assay, the inhibitory activities against FGFR2, FGFR3 and FGFR4 were tested using FGFR2's cytoplasmic domain [399-821 (terminal) amino acids] (Carna: 08-134), FGFR3's cytoplasmic domain [436-806 (terminal) amino acids] (Carna: 08-135) and FGFR4's cytoplasmic domain [460-802 (terminal) amino acids] (Carna: 08-136), respectively. […]
(In general: TR-FRET usually uses a lanthanide donor and a delayed reading to cut background.)

The target of assay [3] is T3, FGFR3 (Homo sapiens, UniProt P22607).
T3 construct: FGFR3's cytoplasmic domain [436-806 (terminal) amino acids]; purchased Carna 08-135
T3 sequence (P22607 436-806): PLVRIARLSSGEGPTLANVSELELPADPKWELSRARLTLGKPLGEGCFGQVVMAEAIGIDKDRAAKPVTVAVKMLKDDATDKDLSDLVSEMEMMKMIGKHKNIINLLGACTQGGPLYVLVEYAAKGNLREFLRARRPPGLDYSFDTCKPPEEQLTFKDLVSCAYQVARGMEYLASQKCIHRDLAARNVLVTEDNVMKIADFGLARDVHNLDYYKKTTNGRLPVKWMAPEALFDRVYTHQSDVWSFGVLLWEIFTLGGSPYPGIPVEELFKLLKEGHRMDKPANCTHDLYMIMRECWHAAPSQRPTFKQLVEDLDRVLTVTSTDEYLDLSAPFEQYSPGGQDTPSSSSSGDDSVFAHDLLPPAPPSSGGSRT
Nature of the assay: FGFR3 kinase activity inhibition assay (LanthaScreen TR-FRET). Conditions: for Selectivity (X) FGFR1/FGFR3: ratio of IC50 FGFR1/FGFR3, selectivity towards FGFR3; for Selectivity (X) FGFR2/FGFR3: ratio of IC50 FGFR2/FGFR3, selectivity towards FGFR3; for Selectivity (X) FGFR4/FGFR3: ratio of IC50 FGFR4/FGFR3, selectivity towards FGFR3; for IC50: FGFR3 kinase, TR-FRET, read-out: IC50 (nM) FGFR3. Put shortly: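 Read-out is TR-FRET, with the 520 nm/495 nm emission ratio normalised to DMSO (max) and enzyme-free (min) controls. Enzyme was the FGFR3 cytoplasmic domain, residues 436-806. EDTA (10 mM) stopped the reaction, followed by 60 min at 22 °C before reading.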

Assay [4] has as its target T4, FGFR4 (Homo sapiens, UniProt P22455).
T4 construct: FGFR4's cytoplasmic domain [460-802 (terminal) amino acids]; purchased Carna 08-136
Description: FGFR4 kinase activity inhibition assay (LanthaScreen TR-FRET). The following applies: for IC50: FGFR4 kinase, TR-FRET, read-out: IC50 (nM) FGFR4. Here is the method:
as §1, §2, §3
According to the same method as that in the FGFR1 kinase activity inhibition assay, the inhibitory activities against FGFR2, FGFR3 and FGFR4 were tested using FGFR2's cytoplasmic domain [399-821 (terminal) amino acids] (Carna: 08-134), FGFR3's cytoplasmic domain [436-806 (terminal) amino acids] (Carna: 08-135) and FGFR4's cytoplasmic domain [460-802 (terminal) amino acids] (Carna: 08-136), respectively. Table 1 reports the kinase activity inhibition results and selectivity towards FGFR3 of each compound.

pIC50: −log10 of the molar value. Like-named read-outs stand apart in the source and are kept apart here.

This note sets out measurements from patent EP4644383A1 (Jiangsu Yahong Meditech Co., Ltd., priority 2022, dated 2024).

T2 sequence (P21802 399-821): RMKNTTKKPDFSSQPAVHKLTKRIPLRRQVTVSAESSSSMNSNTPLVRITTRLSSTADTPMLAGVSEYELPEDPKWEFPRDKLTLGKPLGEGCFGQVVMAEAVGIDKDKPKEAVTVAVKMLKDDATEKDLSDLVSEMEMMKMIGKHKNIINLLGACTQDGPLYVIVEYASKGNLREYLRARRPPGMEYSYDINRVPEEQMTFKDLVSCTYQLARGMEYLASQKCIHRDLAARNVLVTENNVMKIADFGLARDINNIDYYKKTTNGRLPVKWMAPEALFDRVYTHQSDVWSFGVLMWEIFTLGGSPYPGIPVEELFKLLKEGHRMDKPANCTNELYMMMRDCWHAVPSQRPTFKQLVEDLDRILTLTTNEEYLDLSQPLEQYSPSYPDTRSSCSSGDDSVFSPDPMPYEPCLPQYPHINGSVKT
T1 sequence (P11362 398-822): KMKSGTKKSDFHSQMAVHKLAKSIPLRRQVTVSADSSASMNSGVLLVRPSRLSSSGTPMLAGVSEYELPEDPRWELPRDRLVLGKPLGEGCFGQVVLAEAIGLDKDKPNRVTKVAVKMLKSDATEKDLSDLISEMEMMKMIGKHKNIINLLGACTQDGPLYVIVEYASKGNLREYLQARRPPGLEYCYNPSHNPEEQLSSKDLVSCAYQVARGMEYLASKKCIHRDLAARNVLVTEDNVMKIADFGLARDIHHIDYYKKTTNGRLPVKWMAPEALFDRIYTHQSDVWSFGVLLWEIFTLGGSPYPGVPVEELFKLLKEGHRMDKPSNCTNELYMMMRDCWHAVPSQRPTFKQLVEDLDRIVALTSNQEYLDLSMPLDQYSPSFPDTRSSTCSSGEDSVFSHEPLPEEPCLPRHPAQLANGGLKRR
T4 sequence (P22455 460-802): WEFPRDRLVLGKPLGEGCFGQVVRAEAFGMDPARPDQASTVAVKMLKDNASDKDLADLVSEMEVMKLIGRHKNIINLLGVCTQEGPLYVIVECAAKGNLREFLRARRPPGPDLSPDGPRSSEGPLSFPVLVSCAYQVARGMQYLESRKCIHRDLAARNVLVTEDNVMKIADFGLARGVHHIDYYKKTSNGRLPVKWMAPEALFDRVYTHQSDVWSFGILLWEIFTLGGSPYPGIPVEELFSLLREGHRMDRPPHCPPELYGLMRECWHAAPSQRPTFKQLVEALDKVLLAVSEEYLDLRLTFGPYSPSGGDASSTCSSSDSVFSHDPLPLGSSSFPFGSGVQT

What is called pIC50 is the negative decadic logarithm of the IC50, by convention in mol/L. Lower therefore signals a large IC50. `C[C@@H](Oc1ccc2[nH]nc(-c3cnn(Cc4cccnc4)c3)c2n1)c1c(Cl)cncc1Cl` [Example 28, (R)-5-(1-(3,5-dichloropyridin-4-yl)ethoxy)-3-(1-(pyridin-3-ylmethyl)-1H-pyrazol-4-yl)-1H-pyrazolo[4,3-b]pyridine]: the pIC50 is 8.00 to 9.00 in assay [1], more than 9.00 in assay [2], more than 9.00 in assay [3] and 8.00 to 9.00 in assay [4]. In assay [3], the “Selectivity (X) FGFR1/FGFR3” value was “A (A represents 1 ≤ multiple X<20)”. In addition, the “Selectivity (X) FGFR2/FGFR3” value in assay [3] was “A (A represents 1 ≤ multiple X<20)”. The “Selectivity (X) FGFR4/FGFR3” value in assay [3] is recorded as “A (A represents 1 ≤ multiple X<20)”.
Consider `C[C@@H](Oc1ccc2[nH]nc(-c3cnn(CCN4CCOCC4)c3)c2n1)c1c(Cl)cncc1Cl` [Example 31, (R)-4-(2-(4-(5-(1-(3,5-dichloropyridin-4-yl)ethoxy)-1H-pyrazolo[4,3-b]pyridin-3-yl)-1H-pyrazol-1-yl)ethyl)morpholine], for which the pIC50 in assay [1] is 8.00 to 9.00. Besides, the pIC50 in assay [2] is more than 9.00. Also, in assay [3], the pIC50 was more than 9.00, the “Selectivity (X) FGFR1/FGFR3” value was “B (B represents 20 ≤ multiple X<50)”, the “Selectivity (X) FGFR2/FGFR3” value was “A (A represents 1 ≤ multiple X<20)” and the “Selectivity (X) FGFR4/FGFR3” value was “B (B represents 20 ≤ multiple X<50)”. For the same compound, in assay [4], the pIC50 is 7.00 to 8.00.
Broadly, the IC50 is the concentration that inhibits the measured activity by half. For the compound `C[C@@H](Oc1ccc2[nH]nc(-c3cnn(C4CCN(C(=O)CO)C4)c3)c2n1)c1c(Cl)cncc1Cl` (stereo partly drawn) [Example 59, 1-(3-(4-(5-((R)-1-(3,5-dichloropyridin-4-yl)ethoxy)-1H-pyrazolo[4,3-b]pyridin-3-yl)-1H-pyrazol-1-yl)pyrrolidin-1-yl)-2-hydroxyethan-1-one], the IC50 in assay [1] is 1 to 10 nM. In addition, the half-maximal inhibitory concentration (IC50) in assay [2] is less than 1 nM. In addition, in assay [3], the IC50 was less than 1 nM, the “Selectivity (X) FGFR1/FGFR3” value is “A (A represents 1 ≤ multiple X<20)”, the “Selectivity (X) FGFR2/FGFR3” value was “A (A represents 1 ≤ multiple X<20)” and the “Selectivity (X) FGFR4/FGFR3” value is “B (B represents 20 ≤ multiple X<50)”. Further, the half-maximal inhibitory concentration (IC50) in assay [4] lay within 10 to 100 nM.
Take `C[C@@H](Oc1ccc2[nH]nc(-c3cnn(CCn4ccnc4)c3)c2n1)c1c(Cl)cncc1Cl` [Example 60, (R)-3-(1-(2-(1H-imidazol-1-yl)ethyl)-1H-pyrazol-4-yl)-5-(1-(3,5-dichloropyridin-4-yl)ethoxy)-1H-pyrazolo[4,3-b]pyridine]: the IC50 in assay [1] is 10 to 100 nM; in assay [2], 1 to 10 nM; in assay [3], 1 to 10 nM; in assay [4], 10 to 100 nM. For the same compound, in assay [3], the “Selectivity (X) FGFR1/FGFR3” value was “A (A represents 1 ≤ multiple X<20)”. Also, in assay [3], the “Selectivity (X) FGFR2/FGFR3” value was “A (A represents 1 ≤ multiple X<20)”. In addition, the “Selectivity (X) FGFR4/FGFR3” value in assay [3] is listed as “B (B represents 20 ≤ multiple X<50)”.
On to `C[C@@H](Oc1ccc2[nH]nc(-c3cnn(CCc4cccnc4)c3)c2n1)c1c(Cl)cncc1Cl` [Example 61, (R)-5-(1-(3,5-dichloropyridin-4-yl)ethoxy)-3-(1-(2-(pyridin-3-yl)ethyl)-1H-pyrazol-4-yl)-1H-pyrazolo[4,3-b]pyridine], for which, in assay [1], the IC50 lay within 10 to 100 nM. Also, the IC50 in assay [2] lay within 1 to 10 nM. In assay [3], the IC50 was in the range of 1 to 10 nM, the “Selectivity (X) FGFR1/FGFR3” value is given as “A (A represents 1 ≤ multiple X<20)”, the “Selectivity (X) FGFR2/FGFR3” value was “A (A represents 1 ≤ multiple X<20)” and the “Selectivity (X) FGFR4/FGFR3” value is reported as “B (B represents 20 ≤ multiple X<50)”. Besides, the IC50 in assay [4] is 10 to 100 nM.
Take `C[C@@H](Oc1ccc2[nH]nc(-c3cnn(CCN4CCC5(CCNC5=O)CC4)c3)c2n1)c1c(Cl)cncc1Cl` [Example 62, (R)-8-(2-(4-(5-(1-(3,5-dichloropyridin-4-yl)ethoxy)-1H-pyrazolo[4,3-b]pyridin-3-yl)-1H-pyrazol-1-yl)ethyl)-2,8-diazaspiro[4.5]dec an-1-one]: the IC50 in assay [1] was 1 to 10 nM. Also, the IC50 in assay [2] lay within 1 to 10 nM. In assay [3], the IC50 is less than 1 nM, the “Selectivity (X) FGFR1/FGFR3” value is listed as “A (A represents 1 ≤ multiple X<20)”, the “Selectivity (X) FGFR2/FGFR3” value is reported as “A (A represents 1 ≤ multiple X<20)” and the “Selectivity (X) FGFR4/FGFR3” value was “D (D represents 100 ≤ multiple X)”. The IC50 in assay [4] was in the range of 10 to 100 nM.
